# Where a name gives a salt, the structure may show the parent alone.
# Biological target: T1, mouse TAAR1 (Mus musculus, UniProt Q923Y8)
# T1 construct: expressed in transfected cells; host or cells: HEK293 cells (ATCC # CRL-1573), stably transfected with pIRESneo2 expression plasmid; membrane preparation
# Test: Radioligand binding with [3H]-rac-2-(1,2,3,4-tetrahydro-1-naphthyl)-2-imidazoline on membranes of HEK293 cells stably expressing TAAR1
# Details: mouse TAAR1; competition with [3H]-rac-2-(1,2,3,4-tetrahydro-1-naphthyl)-2-imidazoline at 60 nM, 4° C., 30 min
# Experimental: For the construction of expression plasmids the coding sequences of human, rat and mouse TAAR 1 were amplified from genomic DNA essentially as described by Lindemann et al.. The Expand High Fidelity PCR System (Roche Diagnostics) was used with 1.5 mM Mg^2+ and purified PCR products were cloned into pCR2.1-TOPO cloning vector (Invitrogen) following the instructions of the manufacturer. PCR products were subcloned into the pIRESneo2 vector (BD Clontech, Palo Alto, Calif.), and expression vectors were sequence verified before introduction in cell lines.
# HEK293 cells (ATCC # CRL-1573) were cultured essentially as described Lindemann et al. (2005). For the generation of stably transfected cell lines HEK293 cells were transfected with the pIRESneo2 expression plasmids containing the TAAR coding sequences (described above) with Lipofectamine 2000 (Invitrogen) according to the instructions of the manufacturer, and 24 hrs post transfection the culture medium was supplemented with 1 mg/ml G418 (Sigma, Buchs, Switzerland). After a culture period of about 10 d clones were isolated, expanded and tested for responsiveness to trace amines (all compounds purchased from Sigma) with the cAMP Biotrak Enzyme immunoassay (EIA) System (Amersham) following the non-acetylation EIA procedure provided by the manufacturer.
# Cells at confluence were rinsed with ice-cold phosphate buffered saline without Ca^2+ and Mg^2+ containing 10 mM EDTA and pelleted by centrifugation at 1000 rpm for 5 min at 4° C. The pellet was then washed twice with ice-cold phosphate buffered saline and cell pellet was frozen immediately by immersion in liquid nitrogen and stored until use at −80° C. Cell pellet was then suspended in 20 ml HEPES-NaOH (20 mM), pH 7.4 containing 10 mM EDTA, and homogenized with a Polytron (PT 3000, Kinematica) at 10,000 rpm for 10 s. The homogenate was centrifuged at 48,000×g for 30 min at 4° C. and the pellet resuspended in 20 ml HEPES-NaOH (20 mM), pH 7.4 containing 0.1 mM EDTA (buffer A), and homogenized with a Polytron at 10,000 rpm for 10 s. The homogenate was then centrifuged at 48,000×g for 30 min at 4° C. and the pellet resuspended in 20 ml buffer A, and homogenized with a Polytron at 10,000 rpm for 10 s. Protein concentration was determined by the method of Pierce (Rockford, Ill.). The homogenate was then centrifuged at 48,000×g for 10 min at 4° C., resuspended in HEPES-NaOH (20 mM), pH 7.0 including MgCl2 (10 mM) and […] homogenized with a Polytron at 10,000 rpm for 10 s.
# Binding assay was performed at 4° C. in a final volume of 1 ml, and with an incubation time of 30 min. The radioligand [^3H]-rac-2-(1,2,3,4-tetrahydro-1-naphthyl)-2-imidazoline was used at a concentration equal to the calculated Kd value of 60 nM to give a bound at around 0.1% of the total added radioligand concentration, and a specific binding which represented approximately 70-80% of the total binding. Non-specific binding was defined as the amount of [^3H]-rac-2-(1,2,3,4-tetrahydro-1-naphthyl)-2-imidazoline bound in the presence of the appropriate unlabelled ligand (10 μM). Competing ligands were tested in a wide range of concentrations (10 pM-30 μM). […] Each experiment was performed in duplicate. All incubations were terminated by rapid filtration through UniFilter-96 plates (Packard Instrument Company) and glass filter GF/C, pre-soaked for at least 2 h in polyethylenimine 0.3%, and using a Filtermate 96 Cell Harvester (Packard Instrument Company). The tubes and filters were then washed 3 times with 1 ml aliquots of cold buffer B. Filters were not dried and soaked in Ultima gold (45 μl/well, Packard Instrument Company) and bound radioactivity was counted by a TopCount Microplate Scintillation Counter (Packard Instrument Company).
# T1 sequence (Q923Y8 whole entry): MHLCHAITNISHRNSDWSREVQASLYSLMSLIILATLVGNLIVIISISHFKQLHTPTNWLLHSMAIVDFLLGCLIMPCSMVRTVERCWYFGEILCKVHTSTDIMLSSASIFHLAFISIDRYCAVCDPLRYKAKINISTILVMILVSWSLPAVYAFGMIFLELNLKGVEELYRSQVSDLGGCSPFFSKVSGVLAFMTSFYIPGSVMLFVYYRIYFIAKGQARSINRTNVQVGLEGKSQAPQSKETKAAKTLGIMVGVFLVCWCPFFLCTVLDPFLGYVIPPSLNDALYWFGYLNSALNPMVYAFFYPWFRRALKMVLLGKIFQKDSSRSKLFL
row,Structure (SMILES),Ki [µM]
1,"COc1ccc2c(c1)C(C1=NCCN1)CCC2 (racemic) [Example 20, rac-2-(7-Methoxy-1,2,3,4-tetrahydro-naphthalen-1-yl)-4,5-dihydro-1H-imidazole]",0.051
2,"Clc1ccc2c(c1)CCCC2C1=NCCN1 (racemic) [Example 18, rac-2-(6-chloro-1,2,3,4-tetrahydro-naphthalen-1-yl)-4,5-dihydro-1H-imidazole]",0.058
3,"Clc1cc(Cl)c2c(c1)C(c1ncc[nH]1)CCO2 (racemic) [Example 36, rac-2-(6,8-Dichloro-chroman-4-yl)-1H-imidazole]",0.053
4,"COc1ccc2c(c1)CCCC2C1=NCCN1 (racemic) [Example 21, rac-2-(6-methoxy-1,2,3,4-tetrahydro-naphthalen-1-yl)-4,5-dihydro-1H-imidazole]",0.009
5,"Clc1cccc2c1OCC=C2c1cnc[nH]1 [Example 63, 5-(8-Chloro-2H-chromen-4-yl)-1H-imidazole or tautomer]",0.02
6,"Clc1ccc2c(c1)C(c1cnc[nH]1)=CCO2 [Example 64, 5-(6-Chloro-2H-chromen-4-yl)-1H-imidazole or tautomer]",0.016
7,C1=C(c2cnc[nH]2)c2ccccc2CC1 [Example 55],0.011
8,"Cc1cccc2c1C(c1cnc[nH]1)CCO2 (racemic) [Example 66, rac-5-(5-Methyl-chroman-4-yl)-1H-imidazole or tautomer]",0.037
9,"Clc1cccc2c1CCCC2C1=NCCN1 (racemic) [Example 19, rac-2-(5-chloro-1,2,3,4-tetrahydro-naphthalen-1-yl)-4,5-dihydro-1H-imidazole]",0.013
10,"Cc1ccc2c(c1)OCCC2c1cnc[nH]1 (racemic) [Example 60, rac-5-(7-Methyl-chroman-4-yl)-1H-imidazole or tautomer]",0.008
11,"Fc1cc(Cl)cc2c1CCCC2C1=NCCN1 (racemic) [Example 3, rac-2-(7-Chloro-5-fluoro-1,2,3,4-tetrahydro-naphthalen-1-yl)-4,5-dihydro-1H-imidazole]",0.054
12,"c1ccc2c(c1)OCCC2C1=NCCN1 (racemic) [Example 11, rac-2-Chroman-4-yl-4,5-dihydro-1H-imidazole]",0.017
13,"c1ccc2c(c1)OCCC2c1cnc[nH]1 (racemic) [Example 69, rac-5-Chroman-4-yl-1H-imidazole hydrochloride or tautomer]",0.025
14,"c1ccc2c(c1)CCCC2c1c[nH]cn1 (racemic) [Example 56, rac-4-(1,2,3,4-Tetrahydro-naphthalen-1-yl)-1H-imidazole]",0.006
15,"c1ccc2c(c1)OCCC2c1ncc[nH]1 (racemic) [Example 12, rac-2-Chroman-4-yl-1H-imidazole]",0.054
16,"Brc1cccc2c1CCCC2C1=NCCN1 (racemic) [Example 1, rac-2-(5-Bromo-1,2,3,4-tetrahydro-naphthalen-1-yl)-4,5-dihydro-1H-imidazole]",0.009
17,"Cc1cc(C)c2c(c1)C(C1=NCCN1)CCC2 (racemic) [Example 2, rac-2-(5,7-Dimethyl-1,2,3,4-tetrahydro-naphthalen-1-yl)-4,5-dihydro-1H-imidazole]",0.011
18,"Cc1cc(C)c2c(c1)C(c1ncc[nH]1)CCC2 (racemic) [Example 10, rac-2-(5,7-Dimethyl-1,2,3,4-tetrahydro-naphthalen-1-yl)-1H-imidazole]",0.013
19,"Fc1ccc2c(c1)OCCC2c1cnc[nH]1 (racemic) [Example 65, rac-5-(7-Fluoro-chroman-4-yl)-1H-imidazole or tautomer]",0.004
20,"COc1cccc2c1CCCC2C1=NCCN1 (racemic) [Example 22, rac-2-(5-methoxy-1,2,3,4-tetrahydro-naphthalen-1-yl)-4,5-dihydro-1H-imidazole]",0.025
21,"c1ccc2c(c1)NCCC2c1ncc[nH]1 (racemic) [Example 41, rac-4-(1H-Imidazol-2-yl)-1,2,3,4-tetrahydro-quinoline]",0.061
22,"Fc1ccc2c(c1)C(c1cnc[nH]1)CCO2 (racemic) [Example 62, rac-5-(6-Fluoro-chroman-4-yl)-1H-imidazole or tautomer]",0.004
23,"Fc1cccc2c1C(c1cnc[nH]1)CCO2 (racemic) [Example 67, rac-5-(5-Fluoro-chroman-4-yl)-1H-imidazole or tautomer]",0.032

# Same assay, conditions: radioligand used at a concentration equal to its calculated Kd; species of TAAR1 not given
row,Structure (SMILES),Kd [nM]
1,"c1ccc2c(c1)CCCC2C1=NCCN1 (racemic) [[^3H]-rac-2-(1,2,3,4-tetrahydro-1-naphthyl)-2-imidazoline, reference compound]",60

# System: not given
# Test: not given
# Details: not given
row,Structure (SMILES),melting point [°C]
1,Brc1ccc2c(c1)C(C1=NCCN1)CCC2 (racemic),156 to 158
2,"Cc1cc(C)c2c(c1)C(c1ncc[nH]1)CCC2 (racemic) [Example 10, rac-2-(5,7-Dimethyl-1,2,3,4-tetrahydro-naphthalen-1-yl)-1H-imidazole]",161 to 163
